Results taken from PubChem BioAssay (NCI).
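Each compound was tested at five concentrations against cells in 96-well plates for 48 hours. GI50 is the concentration that inhibits growth by half. TGI marks complete inhibition of growth.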

Assays:
Experiment in all cases: inhibition of tumour cell growth, NCI panel, 48 h; in the data active = GI50 below about 0.43 µM; inactive = the rest
786-0 renal = system: 786-0 renal
A498 renal = system: A498 renal
BT-549 breast = system: BT-549 breast
CCRF-CEM leukemia = system: CCRF-CEM leukemia
DU-145 prostate = system: DU-145 prostate
EKVX NSCLC = system: EKVX NSCLC
HCC-2998 colon = system: HCC-2998 colon
HCT-116 colon = system: HCT-116 colon
HL-60(TB) leukemia = system: HL-60(TB) leukemia
HOP-62 NSCLC = system: HOP-62 NSCLC
HOP-92 NSCLC = system: HOP-92 NSCLC
HS 578T breast = system: HS 578T breast
IGROV1 ovarian = system: IGROV1 ovarian
K-562 leukemia = system: K-562 leukemia
M14 melanoma = system: M14 melanoma
MALME-3M melanoma = system: MALME-3M melanoma
MCF7 breast = system: MCF7 breast
MDA-MB-231 breast = system: MDA-MB-231 breast
MOLT-4 leukemia = system: MOLT-4 leukemia
NCI-H226 lung = system: NCI-H226 lung
NCI-H23 lung = system: NCI-H23 lung
RPMI-8226 leukemia = system: RPMI-8226 leukemia
RXF 393 renal = system: RXF 393 renal
SF-268 CNS = system: SF-268 CNS
SF-295 CNS = system: SF-295 CNS
SK-MEL-2 melanoma = system: SK-MEL-2 melanoma
SK-OV-3 ovarian = system: SK-OV-3 ovarian
SN12C renal = system: SN12C renal
SNB-19 CNS = system: SNB-19 CNS
SNB-75 CNS = system: SNB-75 CNS
SR leukemia = system: SR leukemia
T-47D breast = system: T-47D breast
TK-10 renal = system: TK-10 renal
UACC-62 melanoma = system: UACC-62 melanoma
U251 CNS = system: U251 CNS
A549 NSCLC = system: A549 NSCLC
ACHN renal = system: ACHN renal
CAKI-1 renal = system: CAKI-1 renal
COLO 205 colon = system: COLO 205 colon
MDA-MB-435 = system: MDA-MB-435
NCI-H460 lung = system: NCI-H460 lung
NCI/ADR-RES ovarian = system: NCI/ADR-RES ovarian
OVCAR-4 ovarian = system: OVCAR-4 ovarian
OVCAR-5 ovarian = system: OVCAR-5 ovarian
SK-MEL-28 melanoma = system: SK-MEL-28 melanoma
SK-MEL-5 melanoma = system: SK-MEL-5 melanoma
SW-620 colon = system: SW-620 colon
HCT-15 colon = system: HCT-15 colon
HT29 colon = system: HT29 colon
KM12 colon = system: KM12 colon
LOX IMVI melanoma = system: LOX IMVI melanoma
OVCAR-8 ovarian = system: OVCAR-8 ovarian
PC-3 prostate = system: PC-3 prostate
SF-539 CNS = system: SF-539 CNS
UACC-257 melanoma = system: UACC-257 melanoma

O=C(Nc1nc2ccccc2s1)c1cc(-c2ccc(F)cc2)n2nc(-c3ccccc3)cc2n1
> 100 µM: TGI (DU-145 prostate) | TGI (EKVX NSCLC) | TGI (HCC-2998 colon) | TGI (HCT-116 colon) | TGI (HL-60(TB) leukemia) | TGI (IGROV1 ovarian) | TGI (M14 melanoma) | TGI (MALME-3M melanoma) | TGI (MCF7 breast) | TGI (NCI-H226 lung) | TGI (NCI-H23 lung) | TGI (RPMI-8226 leukemia) | TGI (SF-268 CNS) | TGI (SF-295 CNS) | TGI (SN12C renal) | TGI (SNB-19 CNS) | TGI (T-47D breast) | TGI (UACC-62 melanoma)
6.43 µM: TGI (RXF 393 renal)
7.02 µM: TGI (HOP-62 NSCLC)
5.82 µM: TGI (SNB-75 CNS)
15.3 µM: TGI (K-562 leukemia)
5.49 µM: TGI (A498 renal)
5.54 µM: TGI (TK-10 renal)
5.61 µM: TGI (MDA-MB-231 breast)
71.7 µM: TGI (MOLT-4 leukemia)
6.5 µM: TGI (BT-549 breast)
5.1 µM: TGI (786-0 renal)
5.06 µM: TGI (HOP-92 NSCLC)
12.8 µM: TGI (SR leukemia)
inactive: GI50 (786-0 renal) 2.12 µM | GI50 (A498 renal) 1.86 µM | GI50 (BT-549 breast) 2.05 µM | GI50 (CCRF-CEM leukemia) 1.87 µM | GI50 (DU-145 prostate) 4.95 µM | GI50 (EKVX NSCLC) 6.69 µM | GI50 (HCC-2998 colon) > 100 µM | GI50 (HCT-116 colon) 2.71 µM | GI50 (HL-60(TB) leukemia) > 100 µM | GI50 (HOP-62 NSCLC) 2.24 µM | GI50 (HOP-92 NSCLC) 1.69 µM | GI50 (HS 578T breast) 2.29 µM | GI50 (IGROV1 ovarian) 4.36 µM | GI50 (K-562 leukemia) 4.25 µM | GI50 (M14 melanoma) 3.13 µM | GI50 (MALME-3M melanoma) 3.74 µM | GI50 (MCF7 breast) 5.29 µM | GI50 (MDA-MB-231 breast) 2.36 µM | GI50 (MOLT-4 leukemia) 21 µM | GI50 (NCI-H226 lung) 6.31 µM | GI50 (NCI-H23 lung) 2.81 µM | GI50 (RPMI-8226 leukemia) 5.59 µM | GI50 (RXF 393 renal) 2.53 µM | GI50 (SF-268 CNS) 3.89 µM | GI50 (SF-295 CNS) 4.11 µM | GI50 (SK-MEL-2 melanoma) 3.15 µM | GI50 (SK-OV-3 ovarian) 2.3 µM | GI50 (SN12C renal) 6.49 µM | GI50 (SNB-19 CNS) 5.21 µM | GI50 (SNB-75 CNS) 1.75 µM | GI50 (SR leukemia) 3.93 µM | GI50 (T-47D breast) 3.34 µM | GI50 (TK-10 renal) 2.45 µM | GI50 (UACC-62 melanoma) 3.79 µM
4.52 µM: TGI (CCRF-CEM leukemia)
5.56 µM: TGI (SK-OV-3 ovarian)
8.64 µM: TGI (HS 578T breast)
8.97 µM: TGI (SK-MEL-2 melanoma)

Cc1cc(NCCCCCCNc2cc(C)nc3ccc(N)cc23)c2cc(N)ccc2n1
> 100 µM: TGI (SNB-19 CNS) | TGI (U251 CNS)

COc1cc2ccc3ccncc3c2cc1OC
> 10 µM: TGI (786-0 renal) | TGI (A549 NSCLC) | TGI (ACHN renal) | TGI (CAKI-1 renal) | TGI (CCRF-CEM leukemia) | TGI (COLO 205 colon) | TGI (HOP-62 NSCLC) | TGI (IGROV1 ovarian) | TGI (K-562 leukemia) | TGI (M14 melanoma) | TGI (MALME-3M melanoma) | TGI (MCF7 breast) | TGI (MDA-MB-435) | TGI (MOLT-4 leukemia) | TGI (NCI-H23 lung) | TGI (NCI-H460 lung) | TGI (NCI/ADR-RES ovarian) | TGI (OVCAR-4 ovarian) | TGI (OVCAR-5 ovarian) | TGI (RPMI-8226 leukemia) | TGI (RXF 393 renal) | TGI (SF-268 CNS) | TGI (SK-MEL-2 melanoma) | TGI (SK-MEL-28 melanoma) | TGI (SK-MEL-5 melanoma) | TGI (SK-OV-3 ovarian) | TGI (SNB-75 CNS) | TGI (SR leukemia) | TGI (SW-620 colon) | TGI (T-47D breast) | TGI (U251 CNS) | TGI (UACC-62 melanoma)

O=C(c1ccc2ccccc2c1)c1c(C(F)(F)F)n([O-])c2ccc(F)cc2[n+]1=O
2.74 µM: TGI (SN12C renal)
5.05 µM: TGI (SK-OV-3 ovarian)
4.05 µM: TGI (T-47D breast)
3.01 µM: TGI (786-0 renal)
3.68 µM: TGI (NCI-H460 lung)
3.93 µM: TGI (RPMI-8226 leukemia)
2.82 µM: TGI (SK-MEL-2 melanoma) | TGI (SNB-75 CNS)
3.97 µM: TGI (NCI-H226 lung)
4.57 µM: TGI (NCI/ADR-RES ovarian)
3.37 µM: TGI (SF-268 CNS)
2.46 µM: TGI (KM12 colon)
2.3 µM: TGI (MALME-3M melanoma)
4.77 µM: TGI (HS 578T breast)
3.02 µM: TGI (HT29 colon) | TGI (MDA-MB-231 breast) | TGI (SNB-19 CNS) | TGI (TK-10 renal)
2.12 µM: TGI (HCC-2998 colon)
3.18 µM: TGI (OVCAR-5 ovarian) | TGI (SK-MEL-28 melanoma)
3.31 µM: TGI (MCF7 breast)
3.16 µM: TGI (SK-MEL-5 melanoma)
active: GI50 (COLO 205 colon) 0.188 µM | GI50 (HCT-15 colon) 0.354 µM | GI50 (HL-60(TB) leukemia) 0.266 µM | GI50 (LOX IMVI melanoma) 0.394 µM | GI50 (MALME-3M melanoma) 0.397 µM | GI50 (MOLT-4 leukemia) 0.393 µM | GI50 (OVCAR-8 ovarian) 0.324 µM | GI50 (RXF 393 renal) 0.283 µM | GI50 (SR leukemia) 0.277 µM
21 µM: TGI (A498 renal)
3.22 µM: TGI (BT-549 breast) | TGI (OVCAR-4 ovarian)
3.32 µM: TGI (SF-539 CNS)
1.26 µM: TGI (HCT-15 colon)
0.425 µM: TGI (COLO 205 colon)
3.39 µM: TGI (HOP-62 NSCLC) | TGI (PC-3 prostate)
2.81 µM: TGI (U251 CNS)
2.95 µM: TGI (HOP-92 NSCLC) | TGI (UACC-62 melanoma)
5.26 µM: TGI (CCRF-CEM leukemia)
3.2 µM: TGI (SW-620 colon) | TGI (UACC-257 melanoma)
3.11 µM: TGI (M14 melanoma)
1.49 µM: TGI (SR leukemia)
3.41 µM: TGI (A549 NSCLC)
1.91 µM: TGI (NCI-H23 lung)
2.97 µM: TGI (HCT-116 colon)
3.12 µM: TGI (DU-145 prostate)
3.04 µM: TGI (ACHN renal)
1.97 µM: TGI (MOLT-4 leukemia)
3.35 µM: TGI (EKVX NSCLC)
0.958 µM: TGI (RXF 393 renal)
2.23 µM: TGI (HL-60(TB) leukemia)
1.21 µM: TGI (OVCAR-8 ovarian)
inactive: GI50 (786-0 renal) 1.57 µM | GI50 (A498 renal) 6.9 µM | GI50 (A549 NSCLC) 1.8 µM | GI50 (ACHN renal) 1.68 µM | GI50 (BT-549 breast) 1.75 µM | GI50 (CCRF-CEM leukemia) 1.6 µM | GI50 (DU-145 prostate) 1.68 µM | GI50 (EKVX NSCLC) 1.8 µM | GI50 (HCC-2998 colon) 0.892 µM | GI50 (HCT-116 colon) 1.5 µM | GI50 (HOP-62 NSCLC) 1.91 µM | GI50 (HOP-92 NSCLC) 1.21 µM | GI50 (HS 578T breast) 1.98 µM | GI50 (HT29 colon) 1.36 µM | GI50 (KM12 colon) 0.673 µM | GI50 (M14 melanoma) 1.67 µM | GI50 (MCF7 breast) 1.43 µM | GI50 (MDA-MB-231 breast) 1.48 µM | GI50 (NCI-H226 lung) 1.96 µM | GI50 (NCI-H23 lung) 0.574 µM | GI50 (NCI-H460 lung) 1.83 µM | GI50 (NCI/ADR-RES ovarian) 2.1 µM | GI50 (OVCAR-4 ovarian) 1.67 µM | GI50 (OVCAR-5 ovarian) 1.78 µM | GI50 (PC-3 prostate) 1.55 µM | GI50 (RPMI-8226 leukemia) 0.997 µM | GI50 (SF-268 CNS) 1.73 µM | GI50 (SF-539 CNS) 1.88 µM | GI50 (SK-MEL-2 melanoma) 1.2 µM | GI50 (SK-MEL-28 melanoma) 1.68 µM | GI50 (SK-MEL-5 melanoma) 1.75 µM | GI50 (SK-OV-3 ovarian) 2.16 µM | GI50 (SN12C renal) 1.29 µM | GI50 (SNB-19 CNS) 1.51 µM | GI50 (SNB-75 CNS) 1.47 µM | GI50 (SW-620 colon) 1.5 µM | GI50 (T-47D breast) 1.56 µM | GI50 (TK-10 renal) 1.58 µM | GI50 (U251 CNS) 1.47 µM | GI50 (UACC-257 melanoma) 1.74 µM | GI50 (UACC-62 melanoma) 1.6 µM
1.66 µM: TGI (LOX IMVI melanoma)
